From EP4663640A1 (Shanghai Institute of Materia Medica, Chinese Academy of …, priority 2023, dated 2024) come the findings set out here.

Data set [1] in a line: Pharmacokinetics in rats (oral and intravenous). The format is in vivo, SD rats. As to the method: (§1) Intravenous (IV) administration: the drug to be tested was dissolved in DMSO/Solutol/normal saline at a ratio of 5:5:90 (v/v/v), with a concentration of 0.2 mg/mL, and the administration volume was 5 mL/kg. Oral (PO) administration: the drug to be tested was dissolved in DMSO/Tween 80/0.5% CMC-Na solution at a ratio of 2:2:96 (v/v/v), with a concentration of 1 mg/mL, and the administration volume was 10 mL/kg.
Male SD rats weighing 180-280g, 3 rats in each group, fasted for 12h before the experiment, had free access to water, and ate uniformly 4 h after administration. In the IV group, the rat tail vein was administered with a dose of 1mg/kg, and blood was collected at 0.083, 0.25, 0.5, 1.0, 2.0, 4.0, 6.0, 8.0, 12 and 24 h after administration. PO group, administered by gavage at a dose of 10 mg/kg, blood was collected at 0.25, 0.5, 1.0, 2.0, 4.0, 6.0, 8.0, 12 and 24 h after administration. At the above time points, 0.2 mL of blood was collected from the jugular vein and placed in an anticoagulant tube containing EDTA-K2. After the whole blood was collected, it was temporarily stored in an ice water bath, centrifuged at 11000 rpm for 5 min within 30min, the plasma was separated, and then frozen in a -70 °C refrigerator for testing. Tissue distribution group, oral administration, dose of 10mg/kg, 2h after drug administration, rats were anesthetized, bled through the abdominal aorta, and immediately dissected to collect brain, heart, liver, spleen, lung, kidney, colon, muscle. Part of the whole blood was collected and operated in an ice bath. The whole blood was centrifuged at 11000 rpm for 5 min within 30 min, and plasma (about 200 µL) was separated. After the tissue and plasma were collected, they were stored below -60 °C for testing. After each tissue was accurately weighed, the homogenizing reagent acetonitrile-water (1:1, v/v) was added for homogenization, wherein the raion of tissue to homogenizing reagent was 1:4 (g:mL). After homogenization, the samples were sonicated for 10 min, and the supernatant was taken after centrifugation for detection. The drug concentration in the samples was quantified using LC-MS/MS method. Relevant pharmacokinetic parameters Tmax, Cmax, AUC0-∞, t1/2, etc. were calculated using WinNonlin software.

Data set [2] can be described thus: Liver microsome stability test, human. In general terms: Microsomes from liver hold many membrane-bound enzymes, among them those of drug oxidation.
Data set [3] can be described thus: Tissue distribution in rats. The format is in vivo, SD rats. The settings on record: 2 hours after oral administration of 10 mg/kg, brain, heart, liver, spleen, lung, kidney, colon, muscle versus plasma (Figure 2). The protocol: as §1
Male SD rats weighing 180-280g, 3 rats in each group, fasted for 12h before the experiment, had free access to water, and ate uniformly 4 h after administration. In the IV group, the rat tail vein was administered with a dose of 1mg/kg, and blood was collected at 0.083, 0.25, 0.5, 1.0, 2.0, 4.0, 6.0, 8.0, 12 and 24 h after administration. PO group, administered by gavage at a dose of 10 mg/kg, blood was collected at 0.25, 0.5, 1.0, 2.0, 4.0, 6.0, 8.0, 12 and 24 h after administration. At the above time points, 0.2 mL of blood was collected from the jugular vein and placed in an anticoagulant tube containing EDTA-K2. […] The drug concentration in the samples was quantified using LC-MS/MS method. Relevant pharmacokinetic parameters Tmax, Cmax, AUC0-∞, t1/2, etc. were calculated using WinNonlin software.

Data set [4] can be described thus: Liver microsome stability test, mouse. The format is in vitro ADME. As to conditions: Mouse liver microsomes. The text has this: Calculation of Intrinsic Clearance: Clint = (1000 × slope)/(P); [formula]
Setting [5] is: male, SD, rat, plasma, 1 mg/kg (IV).
[6] abbreviates: male, SD, rat, plasma, 10 mg/kg (PO).

Values joined by “and” are separate entries in the source; they are usually repeats but may differ in a detail not shown here. Identical values can stand only once.

In turn, `Cn1c(=O)n(CCCO)c(=O)c2c1nc(C1(F)CCC(F)(F)CC1)n2Cc1ccc(F)c(Cl)c1` [Example E68, 7-(3-chloro-4-fluorobenzyl)-1-(3-hydroxypropyl)-3-methyl-8-(1,4,4-trifluorocyclohexyl)-3,7-dihydro-1H-purine-2,6-dione] yielded a t1/2 in data set [1] (10 mg/kg (PO), 10 mg/kg) of 4.88 ± 0.80 h. Further, the F in data set [1] (10 mg/kg (PO), oral bioavailability, 10 mg/kg) is 62.2% and 62.2 ± 15.9%. Also, the total exposure AUC(0-inf) in data set [1] (setting [5]) is 1170 ± 406 ng·h/mL; in data set [1] (setting [6]) it was 7220 ± 1850 ng·h/mL. The Cmax in data set [1] (setting [5]) came out at 772 ± 92 ng/mL; in data set [1] (male, rat, plasma, 10 mg/kg (PO), Mean±SD, N=3), 1600 ng/mL. For the same compound, in data set [1] (setting [5]), the clearance was found to be 15.4 ± 4.98 mL/min/kg. For the same compound, the half-life is 3.77 ± 2.14 h in data set [1] (setting [5]) and 4.88 h in data set [1] (setting [6]). The Vd in data set [1] (male, SD, rat, plasma, 1 mg/kg (IV), read-out: VSS) was found to be 2.94 ± 0.79 L/kg. Also, the Tmax in data set [1] (setting [6]) turned out to be 0.5 h. Further, the “Stability Evaluation” value in data set [2] (Human liver microsomes) is recorded as “Medium (30%<MF%<70%, medium metabolic stability)”; in data set [4], “Medium (30%<MF%<70%, medium metabolic stability)”. For the same compound, the MF % is on record as 55.2% in data set [2] (Human liver microsomes, metabolic bioavailability) and 49.3% in data set [4] (metabolic bioavailability). Further, the half-life at 1 µM in data set [2] (human, liver microsomes, pH 7.4) came out at 2.2 h; in data set [4] (pH 7.4, 1µM compound, read-out: Half-life T1/2), 0.767 h. In data set [3], the “concentration in each tissue” value was “significantly higher than that in plasma”.

In general, AUC(0-inf) refers to the area under the concentration-time curve extrapolated to infinity. As a reminder, the Cmax is the maximum level reached in the sampled fluid or tissue. A word on the Tmax: it is the time from dosing to the highest level.
